Data published in ChEMBL document CHEMBL5230136, “A review: Biologically active 3,4-heterocycle-fused coumarins” (Eur J Med Chem, 2021).
≈ marks a conversion by molar mass, not a printed value.

Key:
Ehrlich = experiment: cells; settings: Mus musculus
Description: Anticancer activity against mouse EAC cells assessed as reduction in cell viability

Aspergillus niger = experiment: Antifungal activity against Aspergillus niger assessed as zone of inhibition; assay type: functional
Escherichia coli [1] = experiment: Antibacterial activity against Escherichia coli assessed as bacterial growth inhibition by broth dilution method; assay type: functional
Staphylococcus aureus [2] = experiment: Antibacterial activity against Staphylococcus aureus ATCC 29213 assessed as reduction in bacterial growth; assay type: functional
Escherichia coli [3] = experiment: Antibacterial activity against Escherichia coli assessed as bacterial growth inhibition; assay type: functional
[4] = target: T1, D(4) dopamine receptor (Homo sapiens) (UniProt P21917); experiment: Inhibition of human D4 receptor
T1 sequence (whole entry): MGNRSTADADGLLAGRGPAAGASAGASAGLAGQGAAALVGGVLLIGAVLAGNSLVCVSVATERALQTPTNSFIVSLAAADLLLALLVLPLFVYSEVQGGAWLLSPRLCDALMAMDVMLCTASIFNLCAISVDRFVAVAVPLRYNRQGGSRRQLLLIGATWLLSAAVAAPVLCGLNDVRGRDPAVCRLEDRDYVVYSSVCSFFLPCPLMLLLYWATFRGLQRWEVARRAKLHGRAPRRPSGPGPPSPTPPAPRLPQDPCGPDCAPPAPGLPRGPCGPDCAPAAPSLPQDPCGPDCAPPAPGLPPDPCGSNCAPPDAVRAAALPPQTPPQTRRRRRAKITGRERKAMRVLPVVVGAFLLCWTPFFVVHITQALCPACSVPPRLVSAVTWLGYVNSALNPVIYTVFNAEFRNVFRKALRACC

[5] = Antiproliferative activity against human U87 cells assessed as reduction in cell viability by MTT assay; assay type: functional, cell-based, U-87MG ATCC; settings: U-87 MG
[6] = system: Xanthomonas citri pv. malvacearum; experiment: Antibacterial activity against Xanthomonas citri pv. malvacearum assessed as reduction in bacterial growth; assay type: functional; parameters: concentration or dose not given beside the values
Fusarium verticillioides = experiment: Antifungal activity against Fusarium verticillioides assessed as reduction in fungal growth; assay type: functional; parameters: concentration or dose not given beside the values
Rhizoctonia solani [7] = experiment: Antifungal activity against Rhizoctonia solani assessed as reduction in fungal growth; assay type: functional; parameters: concentration or dose not given beside the values
Erysiphe necator = experiment: Antifungal activity against powdery mildew Erysiphe necator assessed as reduction in fungal growth; assay type: functional; parameters: concentration or dose not given beside the values
Phytophthora = experiment: Antimicrobial activity against Phytophthora assessed as reduction in microbial growth; assay type: functional; parameters: concentration or dose not given beside the values
Botrytis cinerea [8] = experiment: Antifungal activity against gray mold Botrytis cinerea assessed as reduction in fungal growth; assay type: functional; parameters: concentration or dose not given beside the values
[9] = Antioxidant activity assessed as DPPH radical scavenging activity; assay type: functional
Botrytis cinerea [10] = experiment: Antifungal activity against Botrytis cinerea; assay type: functional, organism-based
Penicillium italicum = experiment: Antifungal activity against Penicillium italicum assessed as zone of inhibition; assay type: functional
Fusarium oxysporum = experiment: Antifungal activity against Fusarium oxysporum assessed as zone of inhibition; assay type: functional
Aspergillus ochraceus = experiment: Antifungal activity against Aspergillus ochraceus assessed as zone of inhibition; assay type: functional
Penicillium chrysogenum = experiment: Antifungal activity against Penicillium chrysogenum assessed as zone of inhibition; assay type: functional
[11] = target: Dopamine receptors; D2 & D4 (Homo sapiens, UniProt P14416+P21917); experiment: Binding affinity to human D2/D4 receptor assessed as inhibition constant; assay type: protein assay
MCF7 = experiment: Antiproliferative activity against human MCF7 cells assessed as inhibition of cell proliferation measured after 96 hrs by SRB assay; assay type: functional, cell-based; settings: MCF7, 96 h
Rhizoctonia solani [12] = experiment: Antifungal activity against Rhizoctonia solani at 150 uM; assay type: functional, organism-based
Staphylococcus aureus [13] = experiment: Antibacterial activity against Staphylococcus aureus assessed as zone of inhibition; assay type: functional
Bacillus subtilis = experiment: Antibacterial activity against Bacillus subtilis assessed as zone of inhibition; assay type: functional
Bacillus cereus = experiment: Antibacterial activity against Bacillus cereus assessed as zone of inhibition; assay type: functional
Pseudomonas aeruginosa = experiment: Antibacterial activity against Pseudomonas aeruginosa assessed as zone of inhibition; assay type: functional
Escherichia coli [14] = experiment: Antibacterial activity against Escherichia coli assessed as zone of inhibition; assay type: functional
Klebsiella aerogenes = experiment: Antibacterial activity against Enterobacter aerogenes assessed as zone of inhibition; assay type: functional
H69AR = experiment: Cytotoxicity against human NCI-H69AR cells assessed as reduction in cell viability by SRB assay; assay type: functional, cell-based
HuCC-A1 = experiment: Antiproliferative activity against human HuCC-A1 cells assessed as reduction in cell proliferation; assay type: functional, cell-based

O=c1oc2ccccc2c2nc(-c3ccccc3)cc(-c3ccc([N+](=O)[O-])cc3)c12
IC50 (Ehrlich): 0.12 µM

CCSc1nn2c(=N)c3c(=O)oc4ccccc4c3nc2s1
inhibition zone (IZ) (Aspergillus niger): 15 mm

O=c1oc2ccccc2c2nc3c(c(-c4ccccc4)c12)CCC/C3=C\c1ccccc1
IC50 (Ehrlich): 0.13 µM

CC(=O)c1c(O)c2c(cc(O)c3c(=O)oc4c5cccc(C)c5oc(=O)c4c32)oc1=O
MIC (Escherichia coli [1]): 100 µg/mL (≈ 238 µM) | MIC (Staphylococcus aureus [2]): 150 µM (≈ 63 µg/mL) | MIC (Escherichia coli [3]): 100 µM (≈ 42 µg/mL)

COc1cc2c(cc1OC)C1CCN(CCN3CC4CCC(CC4)C3)CC1C(=O)O2 (stereo unspecified)
ID50 [4]: 0.113 mg/kg

O=NN(CCCl)C(=O)NCCCl [CARMUSTINE]
IC50 [5]: 3.9 µg/mL

CN1C(c2ccccc2)Cc2c(c(=O)oc3c2ccc2ccccc23)C1c1ccccc1 (stereo unspecified)
Activity [6]: 9% | Activity (Fusarium verticillioides): 14% | Activity (Rhizoctonia solani [7]): 0% | Activity (Erysiphe necator): 8% | Activity (Phytophthora): 0% | Activity (Botrytis cinerea [8]): 0%

COc1ccc(C2SCCNc3c2c(=O)oc2cc(O)ccc32)c(O)c1 (stereo unspecified)
IC50 [9]: 120 µM

CCOc1ccc2c(c1)oc(=O)c1c(C)c(C)oc12
EC50 (Botrytis cinerea [10]): 1.72 µg/mL (≈ 6.66 µM)

NYSTATIN
inhibition zone (IZ) (Penicillium italicum): 20 mm | inhibition zone (IZ) (Fusarium oxysporum): 26 mm | inhibition zone (IZ) (Aspergillus ochraceus): 24 mm | inhibition zone (IZ) (Penicillium chrysogenum): 24 mm

COc1ccc2c3c(c(=O)oc2c1)CN(Cc1ccc(Cl)cc1)CC3
Ki [11]: 0.667 µM

O=c1oc2ccccc2c2[se]c(CN3CCOCC3)c(Nc3ccncc3)c12
IC50 (MCF7): 18 µM

CC(CN1CCC2c3ccccc3OC(=O)C2C1)N(C)C (stereo unspecified)
ID50 [4]: 0.192 mg/kg

COc1ccc2c(c1)oc(=O)c1c(C)coc12
EC50 (Rhizoctonia solani [12]): 3.57 µg/mL (≈ 15.5 µM)

COc1ccc2c3c(c(=O)oc2c1)CN(Cc1ccccc1Cl)CC3
Ki [11]: 0.171 µM

COc1ccc2c(c1)OC(=O)C1CN(CCN3CC4CCC(CC4)C3)CCC21 (stereo unspecified)
ID50 [4]: 0.035 mg/kg

Cc1ccc2c3c(c(=O)oc2c1)C(c1ccccc1)N(C)C(c1ccccc1)C3 (stereo unspecified)
Activity [6]: 0% | Activity (Fusarium verticillioides): 22% | Activity (Rhizoctonia solani [7]): 15% | Activity (Erysiphe necator): 0% | Activity (Phytophthora): 0% | Activity (Botrytis cinerea [8]): 0%

O=c1[nH]cnc2c1C(c1ccc(Br)cc1)c1c(c3ccccc3oc1=O)O2 (stereo unspecified)
inhibition zone (IZ) (Staphylococcus aureus [13]): 22 mm | inhibition zone (IZ) (Bacillus subtilis): 18 mm | inhibition zone (IZ) (Bacillus cereus): 16 mm | inhibition zone (IZ) (Pseudomonas aeruginosa): 10 mm | inhibition zone (IZ) (Escherichia coli [14]): 13 mm | inhibition zone (IZ) (Klebsiella aerogenes): 12 mm | inhibition zone (IZ) (Aspergillus niger): 21 mm | inhibition zone (IZ) (Penicillium italicum): 12 mm | inhibition zone (IZ) (Fusarium oxysporum): 20 mm

C=CCOc1ccc2c(c1)oc(=O)c1c(C)coc12
EC50 (Botrytis cinerea [10]): 1.72 µg/mL (≈ 6.71 µM)

O=C1c2ccccc2-c2nc3c(c(-c4ccccc4)c21)c(=O)oc1ccccc13
IC50 (Ehrlich): 0.13 µM

CC(=O)N1C(c2ccccc2)Cc2c(c(=O)oc3c2ccc2ccccc23)C1c1ccccc1 (stereo unspecified)
Activity [6]: 9% | Activity (Fusarium verticillioides): 6% | Activity (Rhizoctonia solani [7]): 2% | Activity (Erysiphe necator): 0% | Activity (Phytophthora): 0% | Activity (Botrytis cinerea [8]): 21%

O=c1[nH]cc(F)c(=O)[nH]1 [FLUOROURACIL]
IC50 (Ehrlich): 0.38 µM

Cc1cccc2c1oc(=O)c1cc(NC(=O)c3ccccc3)c(=O)oc12
MIC (Escherichia coli [3]): 105 µM (≈ 36.5 µg/mL)

CCOc1ccc2c(c1)oc(=O)c1c(C)coc12
EC50 (Rhizoctonia solani [12]): 8.87 µg/mL (≈ 36.3 µM)

COc1cc([C@@H]2c3cc4c(cc3[C@@H](O[C@@H]3O[C@@H]5CO[C@@H](C)O[C@H]5[C@H](O)[C@H]3O)[C@H]3COC(=O)[C@H]23)OCO4)cc(OC)c1O [ETOPOSIDE]
IC50 (H69AR): 45.9 µM | IC50 (HuCC-A1): 6.8 µM

N#CC1=C(N)Oc2c(c(=O)oc3ccc(Br)cc23)C12C(=O)Nc1ccccc12 (stereo unspecified)
IC50 [5]: 78 µM

COc1ccc(C2SCCNc3c2c(=O)oc2ccccc32)c(O)c1 (stereo unspecified)
IC50 [9]: 120 µM
